Counter-ions that a name gives are not always drawn.

The first assay addresses T1, Recombinant human renin (Homo sapiens, UniProt P00797).
T1 sequence (P00797 67-406): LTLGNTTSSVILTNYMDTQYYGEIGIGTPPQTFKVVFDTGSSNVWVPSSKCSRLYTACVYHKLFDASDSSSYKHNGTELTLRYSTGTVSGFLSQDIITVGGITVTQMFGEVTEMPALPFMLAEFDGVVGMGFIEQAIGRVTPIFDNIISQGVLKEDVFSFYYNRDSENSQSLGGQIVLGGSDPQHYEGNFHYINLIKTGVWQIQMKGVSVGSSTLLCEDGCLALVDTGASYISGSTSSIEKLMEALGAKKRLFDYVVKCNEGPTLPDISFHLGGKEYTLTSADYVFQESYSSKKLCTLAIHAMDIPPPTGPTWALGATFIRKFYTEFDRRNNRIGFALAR
Nature of the assay: In vitro renin inhibitory activity assay (fluorescence, FRET peptide substrate). In kind it is biochemical. The following applies: 37° C., one hour, substrate 4 μM, pH 7.4. Here is the method: In Vitro Renin Inhibitory Activity Assay
Recombinant human renin (50 ng) was reacted in 0.1M BEPES buffer (pH 7.4) containing 0.1M NaCl, 1 mM EDTA and 0.1 mg/mL BSA together with a substrate and a test compound at 37° C. for one hour. As the substrate, Arg-Glu(EDANS)-Ile-His-Pro-Phe-His-Leu-Val-Ile-His-Thr-Lys(DABCYL)-Arg or DABCYL-γ-Abu-Ile-His-Pro-Phe-His-Leu-Val-Ile-His-Thr-EDANS was added in such an amount so that the final concentration thereof became 4 μM. The elevated fluorescence intensity at the exciting wavelength 340 nm and the fluorescence wavelength 500 nm was measured by a fluorescence plate reader. The concentration of a test compound to be needed to inhibit an enzyme activity in the presence of a test compound in plural concentrations by 50% was calculated as an IC50 value.
The amino acid sequence disclosed in Seq ID:1 is an amino acid sequence used in the renin inhibitory activity assay.
The amino acid sequence disclosed in Seq ID:2 is an amino acid sequence used in the renin inhibitory activity assay.
As for `COCCCOc1cc(C(=O)N(C(C)C)[C@@H]2CC[C@H](CCN(C(=O)CC(C)(C)C(N)=O)C3CC3)NC2)ccc1OC` [Example 69, N^4-Cyclopropyl-N^4-[2-((2R,5R)-5-{isopropyl[4-methoxy-3-(3-methoxypropoxy)-benzoyl]amino}piperidin-2-yl)ethyl]-2,2-dimethylsuccinamide trifluoroacetate], the IC50 was 27.9 nM.

On to `COCCCOc1cc(C(=O)N(C(C)C)[C@@H]2CC[C@H](CCN(C(=O)Cc3ccccc3Cl)C3CC3)NC2)ccc1OC` [Example 72, N-((3R,6R)-6-{2-[[(2-chlorophenyl)acetyl](cyclopropyl)amino]ethyl}piperidin-3-yl)-N-isopropyl-4-methoxy-3-(3-methoxypropoxy)benzamide trifluoroacetate], for which the IC50 is 3.7 nM.

With `COCCCOc1cc(C(=O)N(C(C)C)[C@@H]2CC[C@H](CCN(C(=O)Cc3ccccc3OC)C3CC3)NC2)ccc1OC` [Example 73, N-[(3R,6R)-6-(2-{Cyclopropyl[(2-methoxyphenyl)acetyl]amino}ethyl)piperidin-3-yl]-N-isopropyl-4-methoxy-3-(3-methoxypropoxy)benzamide trifluoroacetate], the IC50 is 4.6 nM.

On to `COCCCOc1cc(C(=O)N(C(C)C)[C@@H]2CC[C@H](CCN(C(=O)Cc3ccccc3C(F)(F)F)C3CC3)NC2)ccc1OC` [Example 74, N-{(3R,6R)-6-[2-(Cyclopropyl{[2-(trifluoromethyl)phenyl]acetyl}amino)ethyl]-piperidin-3-yl}-N-isopropyl-4-methoxy-3-(3-methoxypropoxy)benzamide trifluoroacetate], for which the IC50 amounted to 5.1 nM.

With `COCCCOc1cc(C(=O)N(C(C)C)[C@@H]2CC[C@H](CCN(C(=O)Cc3ccccn3)C3CC3)NC2)ccc1OC` [Example 75, N-((3R,6R)-6-{2-[Cyclopropyl(pyridin-2-ylacetyl)amino]ethyl}piperidin-3-yl)-N-isopropyl-4-methoxy-3-(3-methoxypropoxy)benzamide trifluoroacetate], the IC50 stood at 4.7 nM.

As for `COCCCOc1cc(C(=O)N(C(C)C)[C@@H]2CC[C@H](CCN(C(=O)Cc3cccnc3)C3CC3)NC2)ccc1OC` [Example 78, N-((3R,6R)-6-{2-[Cyclopropyl(pyridin-3-ylacetyl)amino]ethyl}piperidin-3-yl)-N-isopropyl-4-methoxy-3-(3-methoxypropoxy)benzamide trifluoroacetate], the IC50 came to 0.79 nM.

In the case of `COCCCOc1cc(C(=O)N(C(C)C)[C@@H]2CC[C@H](CCN(C(=O)Cc3cccc(NS(C)(=O)=O)c3)C3CC3)NC2)ccc1OC` [Example 81, N-((3R,6R)-6-{2-[Cyclopropyl({3-[(methylsulfonyl)amino]phenyl}acetyl)amino]-ethyl}piperidin-3-yl)-N-isopropyl-4-methoxy-3-(3-methoxypropoxy)benzamide trifluoroacetate], the IC50 worked out at 1.3 nM.

Turning to `COCCCOc1cc(C(=O)N(C(C)C)[C@@H]2CC[C@H](CCN(C(=O)Cc3cccc(C(=O)O)c3)C3CC3)NC2)ccc1OC` [Example 86, 3-(2-{Cyclopropyl[2-((2R,5R)-5-{isopropyl[4-methoxy-3-(3-methoxypropoxy)-benzoyl]amino}piperidin-2-yl)ethyl]amino}-2-oxoethyl)benzoic acid hydrochloride], the IC50 came out at 4 nM.

In the case of `COCCCCN1C(=O)C(C)(C)Oc2ccc(C(=O)N(C(C)C)[C@@H]3CCCNC3)cc21` [Example 126, N-Isopropyl-4-(4-methoxybutyl)-2,2-dimethyl-3-oxo-N-[(3R)-piperidin-3-yl]-3,4-dihydro-2H-1,4-benzoxazine-6-carboxyamide hydrochloride], the IC50 stood at 21.7 nM.

The next assay deals with plasma renin activity / blood pressure.
Experiment: not given
Particulars: clinical test in patients with hypertension; cited from earlier work.
As to `COCCCOc1cc(C[C@@H](C[C@H](N)[C@@H](O)C[C@H](C(=O)NCC(C)(C)C(N)=O)C(C)C)C(C)C)ccc1OC` [aliskiren], the hypotensive activity result is listed as “excellent hypotensive activity comparable to other RA system inhibitors” and the plasma renin activity result was “significantly inhibits plasma renin activity”.

The term IC50 denotes the concentration that gives 50% inhibition.
